# Reference: US6340705B1, “Use of α-linolenic acid metabolites for treatment or prevention of cancer” (Monsanto Technology, LLC, priority 1999, dated 2002)
# Marks after values point to notes of the source that are not given here.
# Tests used:
# [1] = test system: Min/+ mouse model of intestinal cancer; experiment: Intestinal polyp formation in the Min/+ mouse model of intestinal cancer; format: in vivo; parameters: Avg. large intestine tumor size: unit not given here; settings: Min/+ mice
# Protocol: The efficacy of select n-3 and n-6 polyunsaturated fatty acids was evaluated in the Min/+ mouse model of intestinal cancer. The following fatty acid ethyl esters were tested for their effect on intestinal polyp formation: 1) ALA-EE; 2) SDA-EE; 2) EPA-EE; 4) DHA-EE; 5) GLA-EE ([…], 18:3 n-6); and 6) CLA-EE (conjugated linoleic acid; c9t11-18:2 (77%)+c9c11-18:2 (18%)+other isomers (5%)).
# These fatty acid ethyl esters were added to the US17 diet to provide 10 g/day human equivalent dose (3% wt.). The NSAID, sulindac (320 ppm), served as the positive control. In order to maintain a 17% fat (37 en%) content in the US17 diet, oleic acid (18:1 n-9) was removed from the US17 diet in an amount equal to the amount of the fatty acid ethyl ester that was added. Mice were received at approximately five weeks of age and were fed the test diets upon receipt. After seven weeks on the respective test diet, the mice were sacrificed and the intestinal polyps were counted and measured.
# [2] = Arachidonic acid level in phospholipid fraction of small intestine, Min/+ mouse; format: in vivo; settings: Min/+ mice, fed as ethyl esters, 10 g/day human equivalent dose in US17 diet
# Protocol: Fatty acid composition was determined in the small intestine because that is where the vast majority of polyps form. These fatty acid esters were added to the US17 diet as discussed in Example 8. The arachidonic acid level in the phospholipid fraction of the small intestines of the mice was determined by gas chromatography. In FIG. 11, bars labeled with the same letter (e.g., control and CLA, both labeled with a “b”) have values which, statistically, are not different.
# [3] = format: in vivo, rats; settings: rats, US17 diet with 1, 3 or 10 g/day human equivalent dose, one month
# Text: Mice were fed a US17 diet containing α-linolenic acid ethyl ester (ALA-EE), stearidonic acid ethyl ester (SDA-EE), eicosapentaenoic acid ethyl ester (EPA-EE), or docosahexaenoic acid ethyl ester (DHA-EE) in an amount equivalent to a human western diet containing 1, 3 or 10 g/day of the fatty acid (g/day human equivalent dose). In order to maintain a 17% fat (37 en %) content in the US17 diet, oleic acid (18:1 n-9), as an oleic acid cassette, was removed from the US17 diet in an amount equal to the amount of fatty acid ester that was added. Oleic acid was selected as the replacement fatty acid because literature reports indicate that oleic acid is neutral with respect to inflammation and cancer.
# After one month on the respective US17-based diets, the mice were sacrificed and the fatty acid composition of each of their livers was analyzed by gas chromatography. The results of these analyses are pressured in FIG. 8.
# The method used was as described in Example 6 except that rats were used in place of mice.
# [4] = test system: HepG2 cells; experiment: Uptake of 14C-ALA, 14C-SDA and 14C-EPA by HepG2 cells; format: in vitro ADME
# Protocol: To a culture medium containing HepG2 cells was added 20 μM ^14C-ALA, ^14C-SDA or ^14C-EPA complexed to fatty acid free BSA. The amount of ^14C-ALA, ^14C-SDA or ^14-EPA EPA Taken up by the HepG2 cells was measured 6 hours, 24 hours and 48 hours after addition of the fatty acid. A scintillation counter was used to measure the total amount of radioactivity in the HepG2 cells and the amount remaining in the medium.
# [5] = test system: HT-29 cells; experiment: Primary tumor growth in the nude mouse/HT-29 cancer model; format: in vivo; settings: nude mice, HT-29 cells in footpad, US17 diet containing stearidonic acid 3% (10 g/day human equivalent dose), after 35 days
# Protocol: The efficacy of stearidonic acid (18:4n-3) in inhibiting primary tumor growth was evaluated using the nude mouse/HT-29 model. The nude mouse/HT-29 model has been described previously. Hernandez-Alcoceloa R., Fernandez, F., Lacal, J C, Cancer Res., 59(13), 312-18 (1999); Fantini, J., Cancer J., 5(2) (1992).
# Nude (i.e., immunodeficient) mice were fed the US17 diet for three weeks. HT-29 cells were cultured in RPMI-1640 medium supplemented with fetal bovine serum, penicillin, and streptomycin (Gibco, Grand Island, N.Y.) and maintained in a CO2 atmosphere at 37° C. After achieving the optimal cell density, the HT-29 cells were rinsed and then suspended in phosphate buffered saline (PBS). A cell suspension was made in MATRIGEL (Becton Dickinson Labware, Bedford, Mass.). The suspension was ⅔ by volume cells in PBS and ⅓ by volume MATRIGEL. MATRIGEL provides an extracellular matrix secreted by […]. The matrix contains angiogenic and cell proliferation growth factors that aid in HT-29 cell attachment and proliferation as a primary tumor.
# One million cells were injected in a 30 μl volume into the subplanter area of the righthind footpad of the nude mice. […] The amount of primary tumor growth was measured by measuring the change in mouse footpad volume over time. Footpad volume was measured with a plethysmometer (Ugo Basile, Camerio-Varese, Italy).
# [6] = test system: HepG2 cells; experiment: Metabolism of radiolabeled fatty acids to long chain n-3 PUFAs (EPA, DHA) in HepG2 cells; format: in vitro ADME
# Protocol: HepG2 cells were allowed to take up ^14C-ALA or ^14C-SDA as described in Example 2. The total amount of ^14C-EPA, ^14C-DPA and ^14C-DHA present in the HepG2 cells was measured 6 hours, 24 hours and 48 hours after addition of the fatty acid by argentation thin layer chromatography (TLC). The amount of each fatty acid present as a band on the TLC plate was quantified by electronic autoradiography using an Instant Imager supplied by Packard (Meriden, Conn.).
# HepG2 cells were allowed to take up ^14C-ALA, ^14C-SDA or ^14C-EPA as described in Example 2. The amount of ^14C-EPA and ^14C-DHA present in the HepG2 cells was measured 6 hours, 24 hours and 48 hours after addition of the fatty acids by argentation thin layer chromatography (TLC) as described in Example 3. The amount of ^14C-EPA and ^14C-DHA present as bands on the TLC plate were quantified by electronic autoradiography using an Instant Imager as described in Example 3.
# [7] = large intestine and small intestine, versus US17 diet, 10 g/day human equivalent dose
# [8] = 10 g/day human equivalent dose (3% wt.) or sulindac 320 ppm, seven weeks, mean ± SEM
# [9] = 10 g/day human equivalent dose (3% wt.) or sulindac 320 ppm, seven weeks, mean ± SEM, tumor number × tumor size
# [10] = fatty acid ethyl ester 10 g/day human equivalent dose (3% wt.) in US17 diet or sulindac 320 ppm, seven weeks
# [11] = large and small intestine, 10 g/day human equivalent dose (3% wt.) or sulindac 320 ppm, seven weeks, mean ± SEM
smiles,measurement,setting,value
"CC/C=C\C/C=C\C/C=C\C/C=C\CCCCC(=O)O [SDA, stearidonic acid]",effectiveness in inhibiting polyp formation and development in the large intestine,[1]; 10 g/day human equivalent dose,comparable to that of sulindac
same,effectiveness in inhibiting polyp formation and development in the small intestine,[1]; 10 g/day human equivalent dose,comparable to that of EPA
same,decrease in polyp load (number×size),[1]; [7],56%
same,decrease in polyp number,[1]; [7],47%
same,decrease in polyp size,[1]; [7],18%
same,Total small intestine tumors/group,"[1]; 10 g/day human equivalent dose (3% wt.) or sulindac 320 ppm, seven weeks",185
same,Avg. large intestine tumors/mouse,[1]; [8],0.2 ± 0.1^d
same,Avg. small intestine tumor size,[1]; [8],1.07 ± 0.02^ab mm
same,Avg. small intestine tumors/mouse,[1]; [8],18.5 ± 1.9^c
same,Avg. large intestine tumor size,"[1]; 10 g/day human equivalent dose (3% wt.) or sulindac 320 ppm, seven weeks, mean ± SEM, only animals bearing colonic tumors",1.50 ± 0.00^b
same,Avg. large intestine tumor load,[1]; [9],0.30 ± 0.20^d mm
same,Avg. small intestine tumor load,[1]; [9],19.90 ± 2.11^cd mm
same,Total large intestine tumors/group,[1]; [10],2
same,"Total large intestine tumors/group, figure in brackets (animals bearing tumors/animals in group)",[1]; [10],2/10
same,Total Avg. overall tumor load,[1]; [11],20.19 ± 2.24^cd mm
same,Total Avg. overall tumor size,[1]; [11],1.08 ± 0.02^d mm
same,Total Avg. tumors/mouse,[1]; [11],18.7 ± 1.9^a
same,"decreasing the level of arachidonic acid in the small intestine (phospholipid fraction, FIG. 11)",[2],"more effective than ALA, EPA and DHA"
same,level of arachidonic acid in liver tissue (FIG. 9),[3],greater decrease in the level of arachidonic acid than did either ALA or EPA
same,radiolabeled fatty acid taken up by the cells,"[4]; 20 μM complexed to fatty acid free BSA, within the first six hours of incubation",Approximately 95%
same,"uptake by HepG2 cells, comparison (FIG. 1)","[4]; 20 μM, 6, 24 and 48 hours",taken up equally
same,less primary tumor growth (footpad volume) than US17 diet,[5],33%
same,"metabolism to long chain n-3 PUFAs, comparison (FIG. 2 to FIG. 3)",[6],faster than that of ALA
same,rate of metabolism to EPA and further to DHA relative to ALA,[6],approximately twice that of ALA
same,"metabolized to 14C-fatty acid end products (EPA or DHA) or intermediates (20:4 n-3, 22:5 n-3, 24:5 n-3)",[6]; 20 μM,~95%
